Data set [1] relates to CaSki cells. In words: Cell cycle distribution by flow cytometry (PI). It counts as cell-based, human. The conditions noted are these: 4 μM. As to the method: (§1) Differential Activation of G1 Phase Arrest and Apoptosis by Manzamine A (1). To understand the mechanism of manzamine A (1)-mediated cell growth inhibition, we analyzed the cell cycle distribution by flow cytometry in C33A, HeLa, SiHa, and CaSki cell lines. […] FIGS. 3A and 3B show a representation of manzamine A (1) effect on cervical cancer cells treated with 4 μM concentration. […] The values represent standard error from the mean (mean±SE). DMSO serves as control. The significance level represents; *p<0.05; **p<0.001; ***[…]; and ns=non-significant. […] Particularly at 4 μM concentration, the percentage of G0/G1 cell population in SiHa and CaSki increased to 1.2 fold (p=0.001) and 1.4 fold (p=0.011) at 24 hours, and 1.2 fold (p=0.03) and 1.5 fold (p=0.006) at 48 hours as compared to respective DMSO control.
(§2) Cell-cycle and Apoptosis Analysis. Cervical cancer cells were seeded and treated with different concentrations of manzamine A (1) as above. Following trypsinization, one part of the cells was washed with PBS and fixed in chilled 70% ethanol on ice for 30 min. Cells were treated with RNAse A (1 mg/ml) at room temperature for 30 min and stained with propidium iodide (PI: 20 μg/ml). Cell-cycle distribution was analyzed by flow cytometry (Beckman Coulter Epics Elite, Beckman). A minimum of 10,000 events were counted per sample, and the data were analyzed using CXP software (Beckman Coulter) for the proportions of cells in G0/G1, S and G2/M phases of the cell cycle. The second part of the cells were washed twice with PBS and re-suspended in the buffer containing Alexa Fluor conjugated-Annexin-V and PI (Life Technologies, USA). The double staining of the cells was analyzed by flow cytometric analysis. A total of 10,000 cell events were collected to analyze the extent of early, late apoptosis, or necrosis from each sample with the percentages of bound annexin-V^+/PI^−, annexin V^+/PI^+, and annexin V^−/PI^+, respectively.

Data set [2] relates to SiHa cells. Kind of data set: Cell cycle distribution by flow cytometry (PI). It counts as cell-based, human. The following applies: 4 μM. How it is done:
as §1, §2
In general terms: A flow cytometer gives signals particle by particle.

For data set [3], the system named is HeLa cells. In words: Cell cycle distribution by flow cytometry (PI). The following applies: 4 μM, 48 and 72 hours, vs DMSO control. It counts as cell-based, human. How it is done:
as §1, §2

Data set [4] deals with C33A cells. In words: Cell cycle distribution by flow cytometry (PI). The conditions noted are these: 4 μM, 48 and 72 hours. The class given is cell-based, human. As to the method:
as §1, §2

Data set [5] deals with cervical cancer cell lines. In words: Colony formation assay. The class given is cell-based, human. The following applies: 2 and 4 μM; one week. As to the method:
(§3) To maintain the treatment uniformity across the cell lines, we selected optimal dose concentration of 1 to 4 μM, and treated C33A, HeLa, SiHa and CaSki cell lines.
Colony Formation Assay. Cancer cell lines were seeded at a density of 1×10^3 cells/ml in 6-well plates. Following overnight incubation, the cells were treated with manzamine A (1) (2 μM and 4 μM) and incubated in a tissue culture incubator at 37° C. with 5% CO2. After one week, the developed cell colonies were fixed with 4% paraformaldehyde, stained with 0.5% crystal violet, and were photographed.

The test system of data set [6] is C33A, HeLa, SiHa and CaSki cell lines. Kind of data set: Cell growth kinetics. It counts as cell-based, human. As to the method:
as §3
Cell Growth Kinetics. Cervical cancer cells (1×10^6) or HKc (2×10^5) were plated in 100 mm tissue culture petri dish or 6-well plates. Following overnight incubation, cells were treated with 2 μM or 4 μM concentrations of manzamine A (1) derivatives for different time points (24, 48 and 72 hours). Dimethyl sulphoxide (DMSO) was used as control. The cell proliferation activity was determined by cell counting under the microscope with a hemocytometer using trypan blue staining.

Data set [7] is described as follows: Weight loss at high doses. It counts as in vivo. An excerpt: The manzamine class of marine alkaloids is attractive in its potential for the development of novel therapeutics. This group has among the most extensively studied marine natural products to date, being found in more than 16 species of Indo-Pacific sponges distributed within distinct geographical regions. […] These molecules also show interesting activity as neuroprotective and anti-inflammatory agents, HIV/AIDS-associated opportunistic infections, and inhibition of cancer proliferative and metastatic activity. See Ridley, R. G.; Matile, H.; Jaquet, C.; Dorn, A.; Hofheinz, W.; Leupin, W.; Masciadri, R.; Theil, F. P.; Richter, W. F.; Girometta, M. A.; Guenzi, A.; Urwyler, H.; Gocke, E.; Potthast, J. M.; Csato, M.; Thomas, A.; Peters, W. Antimicrob. Agents Chemother. 1997, 41, 677-686. […] It is anticipated that short-term weight-loss would be less problematic or would not necessarily offset the therapeutic gain in cancer patients.

The subject of data set [8] is CaSki cells. Kind of data set: Apoptosis analysis (annexin V and PI staining). The class given is cell-based, human. The following applies: 4 μM, 48 hours. As to the method: (§4) Since programmed cell death (apoptosis) is a key mechanism by which anti-cancer drugs kill cancer cells, we determined the apoptotic effect of manzamine A on cervical cancer cells using annexin V and PI staining. […] Given the sensitivity of C33A and HeLa cell lines to manzamine A, an increase in apoptosis was expected. […] CaSki cells were the least sensitive and corresponds to the IC50 values as in FIG. 2.
as §2

The subject of data set [9] is SiHa cells. In words: Apoptosis analysis (annexin V and PI staining). The following applies: 4 μM, 48 hours. The class given is cell-based, human. How it is done:
as §4, §2

Data set [10] has as its system HeLa cells. In words: Apoptosis analysis (annexin V and PI staining). It counts as cell-based, human. How it is done: as §4, §2
For data set [11], the system named is C33A cells. Kind of data set: Apoptosis analysis (annexin V and PI staining). The class given is cell-based, human. As to the method: as §4, §2

Take `O[C@]12C=C(c3nccc4c3[nH]c3ccccc34)[C@@H]3CCN(CCCC/C=C\CC1)C[C@@]31C[C@@H]3/C=C\CCCCN3[C@H]12` [manzamine A]: the “increase of percentage of G0/G1 cell population vs DMSO control” value is recorded as 1.4 fold in the data set with CaSki cells [1] (24 hours), 1.5 fold in the data set with CaSki cells [1] (48 hours), 1.2 fold with SiHa cells [2] (24 hours) and 1.2 fold in the data set on SiHa cells [2] (48 hours). Besides, the “cell population in G0/G1” value in the data set with HeLa cells [3] and with C33A cells [4] (vs DMSO control) was “significant decrease” throughout. The G2/M cell population entry in the data set on C33A cells [4] is listed as “significant decrease”. In addition, the “colony formation (long-term cell growth)” value in data set [5] is given as “inhibited the cell growth”. Besides, the “cervical cancer cell proliferation” value in [6] (1 to 4 μM, time- and dose-dependent, vs DMSO control) is recorded as “significantly inhibited”. Moreover, the “anti-proliferative, non-cytotoxic concentrations” value in [6] (cervical cancer cells) is on record as “up to 4 μM”. Moreover, in data set [7], the body weight result was “weight loss”. Further, the “percentage of induced apoptotic cells (apoptosis+ necrosis)” value is on record as 23.2% with CaSki cells [8]; 33.6% in the data set on SiHa cells [9]; 75.9% in the data set with HeLa cells [10] (4 μM, 48 hours); 36.5% in the data set with C33A cells [11] (4 μM, 48 hours). The apoptosis result in the data set with HeLa cells [10] (forty-eight hours treatment) is “significant increase”. Also, the apoptosis and necrosis result with C33A cells [11] (24 hours) is listed as “induces apoptosis”.

These data come from patent publication US12023330B2, “Use of manzamines as antiproliferative agent” (priority 2020, dated 2024).
